Reference: PubChem BioAssay AID1996
In brackets after ≈: the same amount, converted by molar mass.

Conditions: buffer; pH 7.4; 200.0 µM

SMILES	solubility kinetic [µg/mL]
c1ccc2nc(-c3ccc(-n4ccnc4)cc3)ccc2c1	6.2 (≈ 22.9 µM)
COc1ccc(OCCNS(=O)(=O)c2cccc([N+](=O)[O-])c2)cc1	16.4 (≈ 46.5 µM)
CC(O)c1nc2ccccc2n1CCCc1ccccc1 (stereo unspecified)	> 42.1
Cc1ccccc1NC(=S)c1ccc2ccccc2n1	< 0.3
CC(=O)Nc1ccc(-c2csc(Nc3cc(C)ccn3)n2)cc1	0.4 (≈ 1.23 µM)
COc1ccc(S(=O)(=O)N2CCN(c3ccccn3)CC2)cc1[N+](=O)[O-]	5.8 (≈ 15.3 µM)
O=C(CN1CCN(Cc2ccccc2)CC1)Nc1ccccc1	> 46.4
O=C(Nc1ccc(F)cc1)c1nc[nH]c1C(=O)O	> 37.4
N#CC1(NC(=O)CSc2ccccn2)CCCCC1	> 41.3
O=[N+]([O-])c1cnccc1NC1CCCCC1	29.1 (≈ 132 µM)
COc1ccc(/C=C/C(=O)O)cc1S(=O)(=O)N1CCC(Cc2ccccc2)CC1	61.6 (≈ 148 µM)
Cc1cccc(-n2cnc(C(=O)N3CCN(C)CC3)c2)n1	> 42.8
Cc1cccc(NC(=S)NC(=O)c2oc3ccccc3c2C)n1	< 0.2
O=C(COC(=O)c1nc(Cl)ccc1Cl)c1ccc[nH]1	31.3 (≈ 105 µM)
COc1ccc(C)cc1S(=O)(=O)NC(C)C(=O)NC1CC1 (stereo unspecified)	> 46.9
CC(NC(=O)COC(=O)CN1C(=O)C2CCCCC2C1=O)c1ccccc1 (stereo unspecified)	> 55.9
COc1ccccc1NS(=O)(=O)c1ccc2[nH]c(=O)[nH]c2c1	> 47.9
Cc1cccc(NC(=O)Nc2ccccc2[N+](=O)[O-])n1	0.3 (≈ 1.1 µM)
Cc1ccc(C(=O)Oc2ccc(N3C(=O)CCC3=O)c(C)c2)cc1	< 0.7
O=C(NC1CCCCC1)c1cccnc1Sc1ccccc1	11.2 (≈ 35.8 µM)
N#CC1(c2ccccc2)CCC(=O)N1Cc1ccccc1 (stereo unspecified)	> 41.5
CCOC(=O)/C(C#N)=C/c1cccn1-c1ccc(Cl)cc1	< 0.3
O=C(Nc1cccnc1Cl)c1noc2c1CCc1ccccc1-2	< 0.2
CCOC(=O)c1ccc(Oc2cc(C)nc(Cl)n2)cc1	> 43.9
O=C(COC(=O)CC1CC2CCC1C2)NCc1ccccc1 (stereo unspecified)	> 45.2

SMILES	solubility kinetic [µg/mL]
Cc1ccc(OCC(=O)NC2CCSc3ccccc32)cc1 (stereo unspecified)	11.8 (≈ 37.6 µM)
COCCCNc1oc(/C=C/c2ccccc2)nc1C#N	3.7 (≈ 13.1 µM)
Cc1cc(=O)[nH]c(SCCc2ccccc2)n1	26.5 (≈ 108 µM)
CC1CCN(S(=O)(=O)c2ccc(NC(=O)C3CC3)cc2)CC1	37.2 (≈ 115 µM)
CCOC(=O)/C=C1/N(C)c2ccccc2C1(C)C	< 0.5
CCn1cc(C(=O)NCc2ccccc2)c2ccccc21	8 (≈ 28.7 µM)
CC(C)NC(=O)CCCc1c[nH]c2ccccc12	> 36.7
Cl.c1ccc(SCCOCCN2CCOCC2)cc1	43.4
COc1ccc(NC(=O)CSc2ccccc2)c([N+](=O)[O-])c1	3.4 (≈ 10.7 µM)
C[Si](C)(C)n1ccnc1	14.6 (≈ 104 µM)
COc1cc(/C=C(/C#N)C(=O)NCc2ccccc2)cc(OC)c1OC	20 (≈ 56.8 µM)
CCOC(=O)CSC1=NN2CCS(=O)(=O)N=C2S1	> 46.4
C[C@@H]1CN(Cc2nc(-c3ccc(Cl)cc3)no2)C[C@H](C)O1	44 (≈ 143 µM)
Fc1ccc(NC(=S)N2CCOCC2)c(F)c1	> 38.7
O=C1CS/C(=C/C(=O)c2cccc(Cl)c2)N1	10.5 (≈ 41.4 µM)
COc1ccc(Nc2cc(Nc3ccc(OC)cc3)ncn2)cc1	< 0.2
O=C(c1cc(F)c(F)cc1Cl)N1CCN(c2ncccn2)CC1	49.3 (≈ 146 µM)
Nc1ncnc(Oc2cccc3cccnc23)c1[N+](=O)[O-]	33.8 (≈ 119 µM)
COn1c(-c2ccc(C)cc2)nc2ncccc21	> 35.9
N#CCN1C(=O)NC2(CCCc3sccc32)C1=O (stereo unspecified)	> 39.2
O=C(COC(=O)c1ccccn1)Nc1ccc2c(c1)OCCO2	44.4 (≈ 141 µM)
CCOC(=O)C1CCN(C(=S)Nc2ccc(C)cc2)CC1	19.9 (≈ 64.9 µM)
NC(=O)COc1ccc(NC(=O)CC23CC4CC(CC(C4)C2)C3)cc1	8.9 (≈ 26 µM)
Cc1ccc(S(=O)(=O)NC(=NC(C)C)c2ccccc2)cc1	> 47.5
Cc1ccc(CNCC(O)c2ccccc2)s1.Cl (stereo unspecified)	> 42.6

SMILES	solubility kinetic [µg/mL]
O=C(Cn1cc(C(F)(F)F)ccc1=O)NC1CCCC1	> 43.2
Cc1cc(C(=O)Nc2cccc3ccccc23)c(C)o1	4 (≈ 15.1 µM)
Cc1ccsc1C1C(C#N)=C(N)N(N(C)C)C2=C1C(=O)CCC2 (stereo unspecified)	> 49.3
Cc1cc(C)c(C(=O)Nn2c(C)nc3ccccc3c2=O)cc1C	> 48.2
COc1cccc(NC(=O)Nc2cc(C)on2)c1	> 37.1
O=C(NCCCc1ccccc1)C(=O)c1c[nH]c2ccccc12	1.2 (≈ 3.92 µM)
N/C(Cc1nc2ccccc2s1)=N\O	29.3 (≈ 141 µM)
O=C(c1cccc(S(=O)(=O)NCc2ccccc2)c1)N1CCCC1	> 51.7
CC(=O)c1ccc(S(=O)(=O)N2CCNCC2)cc1.Cl	45.5
CCOC(=O)C1CCCN(c2c(NCCc3cccc(C)c3)c(=O)c2=O)C1 (stereo unspecified)	18 (≈ 48.6 µM)
Cc1cc(=O)oc(C)c1C(=O)NC1CCCCCCC1	11.8 (≈ 42.5 µM)
CCOC(=O)N1CCN(C(=O)c2ccc(S(=O)(=O)Nc3ccc(C)cc3)cc2)CC1	> 64.7
COc1ccc(C(=O)O/N=C(\N)Cc2ccc([N+](=O)[O-])cc2)c(OC)c1	39.3 (≈ 109 µM)
CC1(C)N2CC3([N+](=O)[O-])CN1CC([N+](=O)[O-])(C2)C3	34.5 (≈ 135 µM)
CCn1cc(C=C2C(=O)NC(=O)NC2=O)c2ccccc21	1.8 (≈ 6.35 µM)
Cc1ncc2c(n1)-c1cc(F)ccc1SC2	28.9 (≈ 124 µM)
CCOC(=O)c1sc(=NC(=O)C2CC2)n(C)c1C	> 40.2
Cc1[nH]c2ccc(F)cc2c1CCN1C(=O)OC(C)(C)C1(C)O (stereo unspecified)	> 48.1
COc1ccc(C)cc1NC(=S)Nc1ccccc1SC	10.5 (≈ 33 µM)
COc1ccccc1Cc1nc(-c2cccnc2)no1	31.9 (≈ 119 µM)
COc1ccc(CNC(=O)COC(=O)/C=C/c2ccc(Cl)cc2)cc1	< 0.8
Cc1cccc(-c2nnc(SCC(=O)NC3CC3)n2C)c1	> 45.4
Cc1ccc(NC(=O)Nc2ccc3c(c2)OCO3)cc1F	< 0.3
CC(C)c1ccc(CNCCCSc2ncccn2)cc1.Cl	49.1
CN=CC1=C(O)C(C(=O)OC)C(C)(C)CC1=O (stereo unspecified)	> 35.9

SMILES	solubility kinetic [µg/mL]
CN(C)C(=O)N1CCN(c2nc(-c3ccccc3)cs2)CC1	40.3 (≈ 127 µM)
CC(=O)N/C(=C\c1ccccc1)C(=O)OCc1ccc(C)cc1	> 46.4
CC(=O)Nc1ccc(NC(=O)COC(=O)c2cc(S(=O)(=O)N3CCCC3)ccc2O)cc1	> 69.2
CC1CC(C)CN(C(=O)COC(=O)c2c[nH]c3ccccc23)C1 (stereo unspecified)	12.7 (≈ 40.4 µM)
CC(C)N(Cc1ccccc1)C(=O)c1ccc2c(c1)OCO2	42.8 (≈ 144 µM)
C/C(=N\NC(=O)c1ccc(Cl)cc1)c1cccnc1	> 41.1
COc1cc(/C=C2\SC(=O)NC2=O)ccc1OCC(=O)N1CCOCC1	> 56.8
C/C(N)=C(/C#N)C(=O)COC(=O)c1cc2c(s1)CCCC2	2.2 (≈ 7.23 µM)
CC(CNS(=O)(=O)c1ccccc1)Sc1ncccn1 (stereo unspecified)	> 46.4
Cn1cccc2[nH]c(=O)nc1-2	15.5 (≈ 104 µM)
Cc1ccc(NC(=O)C2=NNC(=O)CC2)cc1F	> 37.4
O=C(CN1C(=O)NC(c2ccccc2)(c2ccccc2)C1=O)NCc1ccco1	13.7 (≈ 35.2 µM)
Cc1ccc2c(c1)C(c1ccccc1)=NCC(=O)N2C	> 39.6
CCOc1cccc2cc(C(=O)N3CCOCC3)c(=O)oc12	> 45.5
Cl.O=C(NC12CC3CC(CC(C3)C1)C2)OCCNC1CCCCC1	> 53.5
COc1cccc(N(CC(=O)N2CCCC2)S(C)(=O)=O)c1	> 46.9
CC1CCc2ccccc2N1C(=N)N(C)C.Cl (stereo unspecified)	> 38.1
CCOC(=O)C1=C(C)NC(C)=C(C(=O)OCC)C1C(=O)OCC(=O)N1CCC(C)CC1	15.9 (≈ 36.4 µM)
CCNC(=S)Nc1ccc(NC(=O)c2ccccc2O)cc1	21.9 (≈ 69.4 µM)
CCC(=O)Nc1ccc(NC(=O)c2ccc3ccccc3c2)cc1	< 0.3
CCc1cccc(NS(=O)(=O)c2cccc3cccnc23)c1	1 (≈ 3.2 µM)
CC(C)OP(=O)(c1ccc(N(C)C)cc1)C(O)c1ccc(N(C)C)cc1 (stereo unspecified)	> 56.5
Cc1ccc2c(CN3CCCCC3C)cc(=O)oc2c1.Cl (stereo unspecified)	35.6
CC[N+](C)(CC)CCC(c1ccccc1)C1CCCCC1 (stereo unspecified)	29.5
CCOc1ccccc1NC(=O)Nc1ccon1	15.5 (≈ 62.7 µM)

SMILES	solubility kinetic [µg/mL]
COc1ccc(Cl)cc1NC(=S)NCCc1ccc(F)cc1	13.7 (≈ 40.4 µM)
CCS(=O)(=O)N1CCC(C(=O)Nc2ccccc2OC)CC1	43.3 (≈ 133 µM)
COc1ccc(-c2cncnc2-c2ccc(OC)cc2O)cc1	38.6 (≈ 125 µM)
O=C(NCc1ccc(Cl)cc1Cl)Nc1ccccc1	0.4 (≈ 1.36 µM)
O=C1Nc2ccc([N+](=O)[O-])cc2OC1CCN1CCOCC1 (stereo unspecified)	> 46.1
Cc1ccccc1NC(=O)COc1cccc2c1CCNC2=O	46.1 (≈ 149 µM)
COc1ccccc1CNC(=O)CCc1ccccc1	> 40.4
CSc1nc(NCCCO)c2c3c(sc2n1)CN(C)CC3	41.7 (≈ 129 µM)
CC1CCN(C(=O)COc2cccc3c2CCN(C)C3=O)CC1	> 47.5
COCCN(C(=S)Nc1ccc(C)cc1C)C(C)c1cccs1 (stereo unspecified)	7.7 (≈ 22.1 µM)
COc1cc(CNCc2cccc3ccccc23)cc(OC)c1	34.1 (≈ 111 µM)
COc1ccc(CNC(=O)c2sccc2-c2ccccc2)cc1OC	33.7 (≈ 95.3 µM)
CC1CC(C)(C)N2C(=O)C(=C(C#N)C#N)c3cccc1c32 (stereo unspecified)	1.2 (≈ 4.33 µM)
Cc1nc2c(oc3ccc(Cl)cc32)c(=O)[nH]1	11.9 (≈ 50.7 µM)
OC(C#CCCN1CCCCC1)(c1ccccc1)C1CCCCC1 (stereo unspecified)	25.1 (≈ 77.1 µM)
Cc1ccc(Oc2nc3c(c(=O)n(C)c(=O)n3C)n2C)cc1C	40 (≈ 127 µM)
CC1CCC(NC(=O)CCN2C(=O)C3CC=CCC3C2=O)CC1 (stereo unspecified)	> 47.8
O=C1/C(=C/c2ccc([N+](=O)[O-])cc2)CCC1C1CCCC1 (stereo unspecified)	1 (≈ 3.5 µM)
COc1cc(N2Cc3ccccc3C2)ccc1C=O	1.8 (≈ 7.11 µM)
O=C(CS(=O)(=O)c1ccccc1)Nc1nc2ccccc2s1	> 49.9
O=C(COc1ccc([N+](=O)[O-])cc1Cl)Nc1ccc2[nH]c(=O)[nH]c2c1	7.5 (≈ 20.7 µM)
